In brackets after ≈: the same amount, converted by molar mass.
How the values were obtained:
Assay type in all cases: cell-based
Pediococcus pentosaceus = test: MIC, agar dilution on brain-heart infusion agar; conditions: Pediococcus pentosaceus (mean of 2)
Entercoccus faecalis 276 = test: MIC, standard broth micro-dilution assay
Experimental: (§1) The formula I compounds have in vitro and in vivo activity against Gram-positive pathogenic bacteria. The MIC's were determined using a standard broth micro-dilution assay.

[1] = system: Entercoccus gallinarum 245; test: MIC, standard broth micro-dilution assay
Experimental: as §1

[2] = system: Entercoccus faecalis 2041; test: MIC, standard broth micro-dilution assay
Experimental: as §1

Pedicoccus acidilacti = test: MIC, agar dilution on brain-heart infusion agar; conditions: Pedioccccus acidilacti (mean of 10)
[3] = system: Leuconostoc mesenteroides; test: MIC, agar dilution on brain-heart infusion agar; conditions: Leuconostoc mesenteroides (mean of 4)
[4] = system: Staphylococcus aureus S13E
Experimental: (§2) The MIC's were determined using a standard broth micro-dilution assay.

[5] = system: Staphylococcus aureus SA1199B
Experimental: as §2

[6] = system: Staphylococcus aureus 491; test: MIC, standard broth micro-dilution assay
Experimental: as §2

[7] = system: Haemophilus influenzae RD; test: MIC, standard broth micro-dilution assay
Experimental: as §2

[8] = system: Entercoccus faecium 180-1; test: MIC, standard broth micro-dilution assay
Experimental: as §2

[9] = system: Staphylococcus aureus 447; test: MIC, standard broth micro-dilution assay
Experimental: as §2

[10] = system: Staphylococcus aureus X400; test: MIC, standard broth micro-dilution assay
Experimental: as §2

[11] = system: Staphylococcus haemolyticus 105; test: MIC, standard broth micro-dilution assay
Experimental: as §2

[12] = system: Staphylococcus aureus 446; test: MIC, standard broth micro-dilution assay
Experimental: as §2

[13] = system: Staphylococcus aureus SA1199A; test: MIC, standard broth micro-dilution assay
Experimental: as §2

[14] = system: Staphylococcus haemolyticus 415; test: MIC, standard broth micro-dilution assay
Experimental: as §2

Entercoccus faecium 180 = test: MIC, standard broth micro-dilution assay
Experimental: as §2

[15] = system: Staphylococcus epidermidis 270; test: MIC, standard broth micro-dilution assay
Experimental: as §2

[16] = system: Staphylococcus aureus SA1199; test: MIC, standard broth micro-dilution assay
Experimental: as §2

[17] = system: Staphylococcus aureus X778; test: MIC, standard broth micro-dilution assay
Experimental: as §2

[18] = system: Staphylococcus aureus 489; test: MIC, standard broth micro-dilution assay
Experimental: as §2

Leuconostoc lactis = test: MIC, agar dilution on brain-heart infusion agar; conditions: Leuconostoc lactis (mean of 2)
Lactobacillus confusus = test: MIC, agar dilution on brain-heart infusion agar

| Compound | MIC (Entercoccus faecalis 276) | MIC [1] | MIC [2] | MIC (Pedicoccus acidilacti) | MIC [4] | MIC [5] | other results |
| --- | --- | --- | --- | --- | --- | --- | --- |
| CNC(CC(C)C)C(=O)NC1C(=O)NC(CC(N)=O)C(=O)NC2C(=O)NC3C(=O)NC(C(=O)NC(C(=O)O)c4cc(O)cc(O)c4-c4cc3ccc4O)C(OC3CC(C)(N)C(O)C(C)O3)c3ccc(c(Cl)c3)Oc3cc2cc(c3OC2OC(CO)C(O)C(O)C2OC2CC(C)(NCc3cc(OCc4ccccc4)ccc3OC)C(O)C(C)O2)Oc2ccc(cc2Cl)C1O (stereo not shown) [Compound 51, 3-benzyloxy-6-methoxy benzyl] | ≤ 0.06 µg/mL | 1 µg/mL (≈ 0.55 µM) | ≤ 0.06 µg/mL | 87 µg/mL (≈ 47.8 µM) |  |  | MIC (Pediococcus pentosaceus): 91 µg/mL (≈ 50 µM); MIC [3]: 76 µg/mL (≈ 41.8 µM) |
| 2-[4-chlorophenyl]-6-benzoxazolemethyl [Compound 116] | 0.25 µg/mL | 4 µg/mL | ≤ 0.06 µg/mL |  | 1 µg/mL | 0.5 µg/mL |  |
| 4-[2-[2-thiopropyl]ethoxy]benzyl [Compound 134] | 1 µg/mL | 4 µg/mL | 0.25 µg/mL |  | 2 µg/mL | 2 µg/mL |  |
| CNC(CC(C)C)C(=O)NC1C(=O)NC(CC(N)=O)C(=O)NC2C(=O)NC3C(=O)NC(C(=O)NC(C(=O)O)c4cc(O)cc(O)c4-c4cc3ccc4O)C(OC3CC(C)(N)C(O)C(C)O3)c3ccc(c(Cl)c3)Oc3cc2cc(c3OC2OC(CO)C(O)C(O)C2OC2CC(C)(NCCCCCCCCOc3ccc(Oc4ccccc4)cc3)C(O)C(C)O2)Oc2ccc(cc2Cl)C1O (stereo not shown) [Compound 202] | 4 µg/mL (≈ 2.12 µM) | 8 µg/mL (≈ 4.24 µM) | 1 µg/mL (≈ 0.529 µM) |  |  |  | MIC [6]: 8 µg/mL (≈ 4.24 µM) |
| CNC(CC(C)C)C(=O)NC1C(=O)NC(CC(N)=O)C(=O)NC2C(=O)NC3C(=O)NC(C(=O)NC(C(=O)O)c4cc(O)cc(O)c4-c4cc3ccc4O)C(OC3CC(C)(N)C(O)C(C)O3)c3ccc(c(Cl)c3)Oc3cc2cc(c3OC2OC(CO)C(O)C(O)C2OC2CC(C)(NCc3ccc4cc(C)ccc4c3)C(O)C(C)O2)Oc2ccc(cc2Cl)C1O (stereo not shown) [Compound 189] |  | 1 µg/mL (≈ 0.573 µM) | ≤ 0.06 µg/mL |  |  |  | MIC [7]: > 64 µg/mL |
| CNC(CC(C)C)C(=O)NC1C(=O)NC(CC(N)=O)C(=O)NC2C(=O)NC3C(=O)NC(C(=O)NC(C(=O)O)c4cc(O)cc(O)c4-c4cc3ccc4O)C(OC3CC(C)(N)C(O)C(C)O3)c3ccc(c(Cl)c3)Oc3cc2cc(c3OC2OC(CO)C(O)C(O)C2OC2CC(C)(NCc3ccc(C(O)c4ccccc4)cc3)C(O)C(C)O2)Oc2ccc(cc2Cl)C1O (stereo not drawn) [Compound 109, 4-[alpha-hydroxybenzyl]benzyl] | ≤ 0.06 µg/mL | ≤ 0.06 µg/mL | ≤ 0.06 µg/mL |  | 0.25 µg/mL (≈ 0.14 µM) | 0.5 µg/mL (≈ 0.28 µM) | MIC [8]: ≤ 0.06 µg/mL; MIC [7]: 32 µg/mL (≈ 17.9 µM); MIC [9]: 1 µg/mL (≈ 0.559 µM); MIC [10]: ≤ 0.06 µg/mL; MIC [11]: 1 µg/mL (≈ 0.559 µM); MIC [12]: 1 µg/mL (≈ 0.559 µM); MIC [13]: ≤ 0.06 µg/mL; MIC [14]: 4 µg/mL (≈ 2.24 µM); MIC (Entercoccus faecium 180): 0.25 µg/mL (≈ 0.14 µM); MIC [15]: 0.25 µg/mL (≈ 0.14 µM); MIC [16]: ≤ 0.06 µg/mL; MIC [17]: ≤ 0.06 µg/mL; MIC [18]: ≤ 0.06 µg/mL; MIC [6]: 0.25 µg/mL (≈ 0.14 µM) |
| CNC(CC(C)C)C(=O)NC1C(=O)NC(CC(N)=O)C(=O)NC2C(=O)NC3C(=O)NC(C(=O)NC(C(=O)O)c4cc(O)cc(O)c4-c4cc3ccc4O)C(OC3CC(C)(N)C(O)C(C)O3)c3ccc(c(Cl)c3)Oc3cc2cc(c3OC2OC(CO)C(O)C(O)C2OC2CC(C)(NCc3cccc4c3oc3ccccc34)C(O)C(C)O2)Oc2ccc(cc2Cl)C1O (stereo not shown) [Compound 39, 4-[1-oxa]fluorenylmethyl] | ≤ 0.06 µg/mL | ≤ 0.06 µg/mL | ≤ 0.06 µg/mL | 26 µg/mL (≈ 14.7 µM) |  |  | MIC (Leuconostoc lactis): 32 µg/mL (≈ 18.1 µM); MIC (Lactobacillus confusus): 32 µg/mL (≈ 18.1 µM); MIC (Pediococcus pentosaceus): 32 µg/mL (≈ 18.1 µM); MIC [3]: 32 µg/mL (≈ 18.1 µM) |
| CNC(CC(C)C)C(=O)NC1C(=O)NC(CC(N)=O)C(=O)NC2C(=O)NC3C(=O)NC(C(=O)NC(C(=O)O)c4cc(O)cc(O)c4-c4cc3ccc4O)C(OC3CC(C)(N)C(O)C(C)O3)c3ccc(c(Cl)c3)Oc3cc2cc(c3OC2OC(CO)C(O)C(O)C2OC2CC(C)(NCc3ccc(OCc4ccccc4)c(OC)c3)C(O)C(C)O2)Oc2ccc(cc2Cl)C1O (stereo not shown) [Compound 52, 4-benzyloxy-3-methoxybenzyl] |  | 1 µg/mL (≈ 0.55 µM) | 0.5 µg/mL (≈ 0.275 µM) | 55 µg/mL (≈ 30.2 µM) |  |  | MIC [3]: 76 µg/mL (≈ 41.8 µM) |
| CNC(CC(C)C)C(=O)NC1C(=O)NC(CC(N)=O)C(=O)NC2C(=O)NC3C(=O)NC(C(=O)NC(C(=O)O)c4cc(O)cc(O)c4-c4cc3ccc4O)C(OC3CC(C)(N)C(O)C(C)O3)c3ccc(c(Cl)c3)Oc3cc2cc(c3OC2OC(CO)C(O)C(O)C2OC2CC(C)(NCc3ccc4ccccc4c3)C(O)C(C)O2)Oc2ccc(cc2Cl)C1O (stereo not shown) [Compound 1, 2-naphthylmethyl] | ≤ 0.06 µg/mL | 4 µg/mL (≈ 2.31 µM) |  | 18 µg/mL (≈ 10.4 µM) |  |  | MIC (Leuconostoc lactis): 23 µg/mL (≈ 13.3 µM); MIC (Pediococcus pentosaceus): 23 µg/mL (≈ 13.3 µM) |
| CNC(CC(C)C)C(=O)NC1C(=O)NC(CC(N)=O)C(=O)NC2C(=O)NC3C(=O)NC(C(=O)NC(C(=O)O)c4cc(O)cc(O)c4-c4cc3ccc4O)C(OC3CC(C)(N)C(O)C(C)O3)c3ccc(c(Cl)c3)Oc3cc2cc(c3OC2OC(CO)C(O)C(O)C2OC2CC(C)(NCc3ccc(NC(=O)c4cccc(F)c4)cc3)C(O)C(C)O2)Oc2ccc(cc2Cl)C1O (stereo not shown) [Compound 194, 4-[(3-fluorobenzoyl)amino]benzyl] |  | 2 µg/mL (≈ 1.1 µM) | ≤ 0.06 µg/mL |  |  |  | MIC [7]: 32 µg/mL (≈ 17.6 µM) |
| C=CCCCCCCCCCNC1(C)CC(OC2C(Oc3c4cc5cc3Oc3ccc(cc3Cl)C(OC3CC(C)(N)C(O)C(C)O3)C3NC(=O)C(NC(=O)C5NC(=O)C(CC(N)=O)NC(=O)C(NC(=O)C(CC(C)C)NC)C(O)c5ccc(c(Cl)c5)O4)c4ccc(O)c(c4)-c4c(O)cc(O)cc4C(C(=O)O)NC3=O)OC(CO)C(O)C2O)OC(C)C1O (stereo not shown) [Compound 204, 10-undecenyl] | ≤ 0.06 µg/mL |  | ≤ 0.06 µg/mL |  |  |  | MIC [6]: ≤ 0.06 µg/mL |
| 4-[2-chloro-6-fluorobenzyloxy]benzyl [Compound 80] | ≤ 0.06 µg/mL | ≤ 0.06 µg/mL | ≤ 0.06 µg/mL |  | 1 µg/mL | 1 µg/mL |  |
| CNC(CC(C)C)C(=O)NC1C(=O)NC(CC(N)=O)C(=O)NC2C(=O)NC3C(=O)NC(C(=O)NC(C(=O)O)c4cc(O)cc(O)c4-c4cc3ccc4O)C(OC3CC(C)(N)C(O)C(C)O3)c3ccc(c(Cl)c3)Oc3cc2cc(c3OC2OC(CO)C(O)C(O)C2OC2CC(C)(NCc3ccc(-c4ccccc4C)cc3)C(O)C(C)O2)Oc2ccc(cc2Cl)C1O (stereo not shown) [Compound 209] |  | 1 µg/mL (≈ 0.564 µM) | ≤ 0.06 µg/mL |  |  |  | MIC [15]: 0.125 µg/mL (≈ 0.0705 µM) |
